pEC50, pKi: −log10 of the molar value. Entries after “also recorded” stand apart in the source; their conditions may differ.
Tests used:
α1a adrenoreceptor [1] = biological target: T1, α1a adrenoreceptor (Homo sapiens, UniProt P35348); assay: Competition binding, [3H]-prazosin, α1a CHO cell membranes
T1 construct: expressed in transfected cells
T1 sequence (P35348 1-466): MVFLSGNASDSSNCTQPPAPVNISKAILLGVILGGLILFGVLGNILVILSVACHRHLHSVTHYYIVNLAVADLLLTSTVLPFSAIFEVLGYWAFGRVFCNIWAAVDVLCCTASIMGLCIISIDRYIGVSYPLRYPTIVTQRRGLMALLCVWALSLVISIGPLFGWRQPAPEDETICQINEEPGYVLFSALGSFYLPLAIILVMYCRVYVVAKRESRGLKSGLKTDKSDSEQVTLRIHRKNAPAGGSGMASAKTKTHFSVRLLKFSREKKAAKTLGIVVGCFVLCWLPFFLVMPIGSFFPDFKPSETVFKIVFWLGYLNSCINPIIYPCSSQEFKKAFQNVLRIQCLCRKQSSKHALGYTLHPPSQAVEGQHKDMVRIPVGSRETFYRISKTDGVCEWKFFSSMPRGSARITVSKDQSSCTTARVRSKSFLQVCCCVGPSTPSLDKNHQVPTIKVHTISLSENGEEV

α2a adrenoreceptor [2] = biological target: T2, α2a adrenoreceptor (Homo sapiens, UniProt P08913); assay: Competition binding, [3H]-UK14304, α2a CHO cell membranes; conditions: for inhibition of [3H]-UK14304 binding, α2a (in words): CHO cell membranes
T2 construct: expressed in transfected cells; host or cells: CHO (Chinese hamster ovary) cells, membranes
T2 sequence (P08913 1-465): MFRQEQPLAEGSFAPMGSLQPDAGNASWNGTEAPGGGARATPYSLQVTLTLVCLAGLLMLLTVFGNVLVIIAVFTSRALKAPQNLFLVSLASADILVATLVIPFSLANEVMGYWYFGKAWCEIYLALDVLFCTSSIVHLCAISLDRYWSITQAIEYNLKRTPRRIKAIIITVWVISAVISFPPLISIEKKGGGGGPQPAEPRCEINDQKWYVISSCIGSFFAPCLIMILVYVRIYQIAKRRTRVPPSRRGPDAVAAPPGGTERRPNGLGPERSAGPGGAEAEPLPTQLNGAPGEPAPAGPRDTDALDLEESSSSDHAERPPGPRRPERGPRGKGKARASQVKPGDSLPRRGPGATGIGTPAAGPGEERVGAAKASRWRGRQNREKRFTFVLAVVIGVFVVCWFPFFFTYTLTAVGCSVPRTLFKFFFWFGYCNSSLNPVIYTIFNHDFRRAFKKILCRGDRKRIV
Experimental: (§1) The affinity and activity of phenylephrine metabolites were evaluated in human recombinant α1 and α2 adrenoreceptor binding and activity assays. […] Affinity of the metabolites was determined by receptor binding assays. Functional activity of the metabolites was assessed using an [^35S]-GTPγS binding exchange assay for the α2 receptor subtypes and a cell-based calcium flux response for the α1 receptor subtypes.
(§2) Competition Binding Assays
(§3) Competition binding assays for the α2 adrenoreceptors were performed using 20 μg membrane protein per well in binding buffer (75 mM Tris-HCl pH 7.4, 12.5 mM MgCl2, […] EDTA, 0.2% bovine serum albumin). […] Binding was terminated by rapid filtration through GF/C unifilter plates, presoaked with 0.3% polyethylenimine, with five washes with 0.5 ml cold 50 mM Tris-HCl ph 7.4, using a Packard Filtermate Harvester. After drying, bound radioactivity was determined by liquid scintillation counting (Packard TopCount) with Microscint 20, 50 μl/well. Binding data were analyzed using GraphPad Prism.
(§4) Each metabolite was evaluated in each assay in at least 2 independent experiments and a representative assay of each metabolite/assay combination is shown.

α2b adrenoreceptor = biological target: T3, α2b adrenoreceptor (Homo sapiens, UniProt P18089); assay: Competition binding, [3H]-UK14304, α2b CHO cell membranes; conditions: for inhibition of [3H]-UK14304 binding, α2b (in words): CHO cell membranes
T3 construct: expressed in transfected cells; host or cells: CHO (Chinese hamster ovary) cells, membranes
T3 sequence (P18089 1-450): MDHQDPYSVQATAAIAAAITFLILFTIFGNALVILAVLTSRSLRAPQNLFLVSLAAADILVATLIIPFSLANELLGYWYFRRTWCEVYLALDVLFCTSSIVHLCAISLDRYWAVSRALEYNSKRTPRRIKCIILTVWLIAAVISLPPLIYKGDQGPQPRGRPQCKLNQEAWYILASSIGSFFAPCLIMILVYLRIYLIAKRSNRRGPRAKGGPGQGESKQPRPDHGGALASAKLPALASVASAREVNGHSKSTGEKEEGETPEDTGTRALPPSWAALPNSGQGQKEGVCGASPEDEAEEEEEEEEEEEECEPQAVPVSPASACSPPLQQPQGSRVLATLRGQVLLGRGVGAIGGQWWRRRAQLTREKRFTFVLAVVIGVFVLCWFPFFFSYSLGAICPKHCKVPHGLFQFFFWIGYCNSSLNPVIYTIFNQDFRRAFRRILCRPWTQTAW
Experimental: as §1, §2, §3, §4

α2a adrenoreceptor [3] = biological target: T2, α2a adrenoreceptor; assay: [35S]-GTPγS binding exchange, α2a CHO cell membranes; assay type: biochemical; conditions: for stimulation of [35S]-GTPγS binding, α2a (in words): CHO cell membranes
Experimental: as §1
Plates were counted on a Packard TopCount. The percent increase over basal binding of [^35S]-GTPγS, a measure of efficacy, was calculated as follows: 100×[[mean total sample cpm−basal cpm]÷by basal cpm]. Basal cpm was defined as the mean cpm in the absence of agonist compound minus the mean non-specific binding cpm.
as §4

α1a adrenoreceptor [4] = biological target: T1, α1a adrenoreceptor; assay: Cellular calcium flux (FLIPR), α1a expressing CHO cells; assay type: cell-based; conditions: for increase in intracellular calcium, α1a calcium assay (in words): α1a expressing CHO cells
Experimental: as §1
Intracellular calcium levels were measured using a fluorometric imaging plate reader (FLIPR). Cells expressing α1 adrenoreceptors were cultured overnight at 15,000 cells/well in 96 well black-wall clear bottom plates (Packard). Adherent cells were loaded for 1 hour at 37° C. using the FLIPR Calcium Plus Assay Kit (Molecular Probes, Eugene, Oreg.), which included 2.5 mM probenecid (Sigma). Compounds (at 10 mM in 100% DMSO) were diluted in diluting buffer (HBSS, 20 mM HEPES, 2.5 mM probenecid, 0.5% BSA, pH 7.4). A titration of norepinephrine was included in every experiment and norepinephrine (at 1 μM) was also used as a plate standard on each assay plate. Cells were maintained at 37° C. throughout all calcium measurements. Fluorescence data was collected at 1 second interval for 60 seconds, followed by collection at 2 second intervals for 30 seconds. Background fluorescence was quantitated in wells containing cells with no additions and was subtracted from all experimental samples. All conditions were done in quadruplicate. Non-linear regression analysis using GraphPad Prism was used to calculate EC50 values.
as §4

[5] = listed as PE glucuronide batch 4
[6] = at 100 μM (highest concentration evaluated)
[7] = highest concentration evaluated (10 μM)

## CNC[C@H](O)c1cccc(O[C@@H]2O[C@H](C(=O)O)[C@@H](O)[C@H](O)[C@H]2O)c1 [PE glucuronide, (R)-PE glucuronide]
α1a adrenoreceptor [1]; CHO cell membranes
  inhibition of 3H-prazosin binding, α1a (in words): No appreciable binding; also recorded: no binding affinity; also recorded: pharmacologically inactive
α2a adrenoreceptor [2]
  inhibition of [3H]-UK14304 binding, α2a (in words): weakly inhibits binding; also recorded: pharmacologically inactive
α2a adrenoreceptor [2]; listed as PE glucuronide b4
  inhibition of [3H]-UK14304 binding, α2a (in words): A small amount of binding
α2a adrenoreceptor [2]; [5]
  inhibition of [3H]-UK14304 binding, α2a (in words): minimal activity
α2b adrenoreceptor
  inhibition of [3H]-UK14304 binding, α2b (in words): weakly inhibits binding; also recorded: pharmacologically inactive
α2b adrenoreceptor; listed as PE glucuronide b4
  inhibition of [3H]-UK14304 binding, α2b (in words): A small amount of binding
α2b adrenoreceptor; [5]
  inhibition of [3H]-UK14304 binding, α2b (in words): minimal activity
α2a adrenoreceptor [3]
  stimulation of [35S]-GTPγS binding, α2a (in words): nor did it activate binding; also recorded: pharmacologically inactive
α2a adrenoreceptor [3]; highest concentration, 100 μM
  activity in α2a [35S]-GTPγS assay (in words): very weak binding
α1a adrenoreceptor [4]; batch b4, approximately 0.28% PE
  fold less potent than PE in inducing a calcium increase, α1a cells: 300-450 fold
α1a adrenoreceptor [4]
  increase in intracellular calcium, α1a calcium assay (in words): consistent with level of contaminating phenylephrine; also recorded: pharmacologically inactive
α1a adrenoreceptor [4]; [5]
  increase in intracellular calcium, α1a calcium assay (in words): minimal activity

## O=C(O)C(O)c1cccc(O)c1 (centres unmarked) [3-hydroxymandelic acid]
α1a adrenoreceptor [1]; [3H]-prazosin, read-out: Ki, a1a Binding (class symbol)
  pKi: < 4.00
α1a adrenoreceptor [1]; concentrations up to 100 μM
  binding / affinity, α1a receptor (in words): No appreciable binding; also recorded: no affinity
α2a adrenoreceptor [2]
  inhibition of [3H]-UK14304 binding, α2a (in words): no significant binding
α2a adrenoreceptor [2]; [3H]-UK14304, read-out: Ki, a2a Binding (class symbol)
  pKi: < 4.00
α2a adrenoreceptor [2]; [6]
  binding / affinity, α2a receptor (in words): no affinity
α2b adrenoreceptor
  inhibition of [3H]-UK14304 binding, α2b (in words): no significant binding
α2b adrenoreceptor; [3H]-UK14304, read-out: Ki, a2b Binding (class symbol)
  pKi: < 4.00
α2b adrenoreceptor; [6]
  binding / affinity, α2b receptor (in words): no affinity
α2a adrenoreceptor [3]
  stimulation of [35S]-GTPγS binding, α2a (in words): no activity
α2a adrenoreceptor [3]; [7]
  agonist activity, α2a [35S]-GTPγS assay (in words): no activity
α2a adrenoreceptor [3]; read-out: EC50, a2a GTPγS (class symbol)
  pEC50: < 5.00
α1a adrenoreceptor [4]; [7]
  agonist activity, α1a calcium assay (in words): no activity
α1a adrenoreceptor [4]
  increase in intracellular calcium, α1a calcium assay (in words): not active
α1a adrenoreceptor [4]; α1a-expressing CHO cells, read-out: EC50, a1a Calcium (class symbol)
  pEC50: < 5.00
